According to PubChem BioAssay (NCI):
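Protocol summary: plate cells (96-well), add compound at 5 concentrations, incubate 48 h, interpolate endpoints linearly. At the GI50, growth is halved. TGI is the concentration that stops growth completely.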

Legend:
Experiment in all cases: inhibition of tumour cell growth, NCI panel, 48 h
[1] = tested on: HT29 colon
[2] = tested on: A498 renal
[3] = tested on: IGROV1 ovarian
[4] = tested on: SK-MEL-28 melanoma
[5] = tested on: TK-10 renal
[6] = tested on: OVCAR-4 ovarian
[7] = tested on: HCT-15 colon
[8] = tested on: ACHN renal
[9] = tested on: CCRF-CEM leukemia
[10] = tested on: U251 CNS
[11] = tested on: SK-MEL-5 melanoma
[12] = tested on: HCT-116 colon
[13] = tested on: SF-268 CNS
[14] = tested on: MCF7 breast
[15] = tested on: HCC-2998 colon
[16] = tested on: SK-MEL-2 melanoma
[17] = tested on: SNB-75 CNS
[18] = tested on: NCI-H460 lung
[19] = tested on: RXF 393 renal
[20] = tested on: MDA-MB-231 breast
[21] = tested on: SK-OV-3 ovarian
[22] = tested on: HS 578T breast
[23] = tested on: UO-31 renal
[24] = tested on: SF-539 CNS
[25] = tested on: UACC-257 melanoma
[26] = tested on: HOP-62 NSCLC
[27] = tested on: NCI-H522 lung
[28] = tested on: NCI/ADR-RES ovarian
[29] = tested on: UACC-62 melanoma
[30] = tested on: RPMI-8226 leukemia
[31] = tested on: A549 NSCLC
[32] = tested on: SN12C renal
[33] = tested on: T-47D breast
[34] = tested on: OVCAR-8 ovarian
[35] = tested on: OVCAR-3 ovarian
[36] = tested on: SR leukemia
[37] = tested on: HOP-92 NSCLC
[38] = tested on: MALME-3M melanoma
[39] = tested on: NCI-H23 lung
[40] = tested on: BT-549 breast
[41] = tested on: EKVX NSCLC
[42] = tested on: SW-620 colon
[43] = tested on: NCI-H226 lung
[44] = tested on: SF-295 CNS
[45] = tested on: COLO 205 colon
[46] = tested on: OVCAR-5 ovarian
[47] = tested on: PC-3 prostate
[48] = tested on: 786-0 renal
[49] = tested on: DU-145 prostate
[50] = tested on: M14 melanoma
[51] = tested on: LOX IMVI melanoma
[52] = tested on: SNB-19 CNS
[53] = tested on: CAKI-1 renal

Work on `Cc1ccc2oc(=O)cc(C3c4ccc([nH]4)C(c4cc(=O)oc5ccc(C)cc45)c4ccc([nH]4)C(c4cc(=O)oc5ccc(C)cc45)c4ccc([nH]4)C(c4cc(=O)oc5ccc(C)cc45)c4ccc3[nH]4)c2c1` (stereo not given) yielded a GI50 [1] of 34.7 nM, a TGI [1] of 108 nM and a GI50 [2] of 27.5 nM. For the same compound, the TGI [2] was 248 nM, the GI50 [3] was 49.2 nM and the TGI [3] was 1730 nM. For the same compound, the GI50 [4] was 75 nM, the TGI [4] was 2980 nM and the GI50 [5] was 51.9 nM. It also gave a TGI [5] of 926 nM, a GI50 [6] of 104 nM and a TGI [6] of 3810 nM. It also gave a GI50 [7] of 31.7 nM, a TGI [7] of 1210 nM and a GI50 [8] of 62.1 nM. It also gave a TGI [8] of 2670 nM, a GI50 [9] of 35.9 nM and a TGI [9] greater than 100000 nM. For the same compound, the GI50 [10] was 36.9 nM, the TGI [10] was 1270 nM and the GI50 [11] was 32 nM. The TGI [11] was 127 nM, the GI50 [12] was 29.5 nM and the TGI [12] was 280 nM. For the same compound, the GI50 [13] was 56.1 nM, the TGI [13] was 1470 nM and the GI50 [14] was 39.4 nM. The TGI [14] was 1950 nM, the GI50 [15] was 188 nM and the TGI [15] was 846 nM. For the same compound, the GI50 [16] was 98.3 nM, the TGI [16] was 1020 nM and the GI50 [17] was 25.6 nM. For the same compound, the TGI [17] was 1610 nM, the GI50 [18] was 37.5 nM and the TGI [18] was 656 nM. For the same compound, the GI50 [19] was 25.4 nM, the TGI [19] was 77.4 nM and the GI50 [20] was 125 nM. The TGI [20] was 818 nM, the GI50 [21] was 24.7 nM and the TGI [21] was 68.7 nM. It also gave a GI50 [22] of 35.1 nM, a TGI [22] of 2020 nM and a GI50 [23] of 36.4 nM. For the same compound, the TGI [23] was 1190 nM, the GI50 [24] was 23.9 nM and the TGI [24] was 66.9 nM. The GI50 [25] was 183 nM, the TGI [25] was 2460 nM and the GI50 [26] was 46.3 nM. It also gave a TGI [26] of 1270 nM, a GI50 [27] of 212 nM and a TGI [27] of 796 nM. It also gave a GI50 [28] of 31.3 nM, a TGI [28] of 1100 nM and a GI50 [29] of 32.4 nM. For the same compound, the TGI [29] was 800 nM, the GI50 [30] was 51.6 nM and the TGI [30] was 578 nM. For the same compound, the GI50 [31] was 63 nM, the TGI [31] was 1540 nM and the GI50 [32] was 58.6 nM. The TGI [32] was 1740 nM, the GI50 [33] was 43.4 nM and the TGI [33] was 2990 nM. For the same compound, the GI50 [34] was 33.8 nM, the TGI [34] was 1520 nM and the GI50 [35] was 22.5 nM. The TGI [35] was 53.3 nM, the GI50 [36] was 41.7 nM and the GI50 [37] was 106 nM. For the same compound, the TGI [37] was 1070 nM, the GI50 [38] was 131 nM and the TGI [38] was 2850 nM. The GI50 [39] was 57.4 nM, the TGI [39] was 1580 nM and the GI50 [40] was 29.9 nM. For the same compound, the TGI [40] was 183 nM, the GI50 [41] was 63.2 nM and the TGI [41] was 4480 nM. It also gave a GI50 [42] of 35.2 nM, a TGI [42] of 3340 nM and a GI50 [43] of 86.5 nM. For the same compound, the TGI [43] was 2780 nM, the GI50 [44] was 27 nM and the TGI [44] was 284 nM. For the same compound, the GI50 [45] was 165 nM, the TGI [45] was 353 nM and the GI50 [46] was 106 nM. The TGI [46] was 2710 nM, the GI50 [47] was 36.6 nM and the TGI [47] was 1940 nM. For the same compound, the GI50 [48] was 28.8 nM, the TGI [48] was 93.7 nM and the GI50 [49] was 39.1 nM. The TGI [49] was 1800 nM, the GI50 [50] was 25.3 nM and the TGI [50] was 76.6 nM. The GI50 [51] was 36.5 nM, the TGI [51] was 1230 nM and the GI50 [52] was 39.4 nM. The TGI [52] was 3450 nM, the GI50 [53] was 80.6 nM and the TGI [53] was 1790 nM.
